Laboratory results: patent US20150203526A1, “NOVEL 19-NOR-STEROIDS AND THEIR USE FOR TREATING PROGESTERONE- DEPENDENT CONDITIONS” (REPROS THERAPEUTICS INC., priority 2010, published 2015)
Values after ≈ are worked out from the molar mass of the structure shown. Where two headings read alike, the source gives them in different places.

Legend:
[1] = Thermodynamic solubility (solid shaken in solvent at 37° C., filtrate by LC/UV); assay type: physicochemical
Protocol: Briefly, 300 ul of solvent (ethanol, 0.1 M HCl or distilled H2O) were added to 14-16 mg of the solid compound (5 parallel measurements per sample, per solvent, mean concentrations 93-107 mM). The mixtures were shaken at 37° C. for 24 and 72 hours. Concentrations of the filtrates were determined by liquid chromatography with UV detector (LC/UV) with 3-point calibration.
Crystal form was checked by X-ray powder diffraction (XRPD) after recovering the slurry at 24 and 72 hours. […] The exact cause of this observed phenomenon is not known.

liver aminotransferases = experiment: Clinical trials of daily oral CDB-4124 (Proellex): liver toxicity / liver enzymes; assay type: in vivo, human
Protocol: (§1) The maximum concentrations of CDB-4124 and its mono-demethylated metabolite (CDB-4453) for the 12.5 mg dose were 25% of the 50 mg dose. All liver toxicities resolved in those women that returned for safety follow-ups, including those subjects that developed liver-associated serious adverse effects (SAEs).
To date, over 600 patients, including women with confirmed cases of endometriosis or uterine fibroids, have participated in double blind and open label clinical trials in which patients were administered daily oral capsules containing doses of 12.5 mg, 25 mg or 50 mg CDB-4124 (Proellex) for over one month. Of these patients, about 500 received Proellex and about 130 received a placebo. Of the patients receiving Proellex, about 190 received a dose of 50 mg CDB-4124 per day, about 260 received a dose of 25 mg CDB-4124 per day and about 55 received a dose of 12.5 mg per day.
Liver enzymes were frequently monitored in participating subjects. The liver enzyme level at which the clinical trials would be discontinued was set at an increase in liver aminotransferases greater than, or equal to three times the Upper Limit of Normal (≧3×ULN).
Of the nine subjects with a confirmed increase in liver enzymes≧3×ULN, seven were severe enough elevations to be reported to the FDA as SAEs. One of these seven subjects had been receiving a dose of 25 mg CDB-4124 per day; the remaining six subjects had been receiving a dose of 50 mg CDB-4124 per day. Liver enzymes≧3×ULN persisted in five of the nine subjects with a confirmed increase in liver enzymes≧3×ULN. These five subjects had previously been dosed with the 50 mg dose. One of these subjects is receiving oral medication for treatment of their liver condition. Clinical trials involving CDB-4124 at all doses were voluntarily suspended as a result of these SAEs and were subsequently placed on clinical hold by the United States Food and Drug Administration for safety reasons.

[2] = Pharmacokinetic studies on clinical trial subjects after oral CDB-4124; assay type: in vivo, human
Protocol: as §1
(§2) Pharmacokinetic studies performed on participating subjects detected a high Cmax and a Tmax at 1-2 hours following administration. […] Metabolism of CDB-4124 by the liver provides the opportunity for liver damage and greatly reduces the concentration of the antiprogestin before it reaches the systemic circulation. Thus, alternative routes of administration of antiprogestins that avoid first pass metabolism such as, without limitation, intravenous, intramuscular, and sublingual, should allow antiprogestins to be absorbed directly into the systemic circulation and thereby provide a method for treating progestone-dependent conditions while avoiding liver toxicity. Administration routes which avoid first pass metabolism may also require less drug per dose to achieve the same therapeutic benefit relative to oral administration.

human hepatocytes = experiment: Metabolism in primary cultures of human hepatocytes; assay type: in vitro ADME
Protocol: as §2

animal hepatocytes = experiment: Metabolism in primary cultures of animal hepatocytes; assay type: in vitro ADME
Protocol: as §2

[3] = system: DMBA-induced breast tumors; experiment: DMBA-induced breast tumor pre-clinical study; assay type: in vivo, rodents; settings: subcutaneous injection
Protocol: Pre-clinical studies were performed on rodents with breast tumors induced by 7,12-Dimethylbenz(a)anthracene (DMBA).

[4] = Oral vs vaginal pharmacokinetics in beagles (25 mg); assay type: in vivo
Protocol: FIG. 1 illustrates a comparison of the Cmax (peak serum concentration) and area under the curve (AUC) following oral and vaginal administration of CDB-4124 or CDB-4453 at a 25 mg dose in beagles.
Beagles were administered 25 mg of CDB-4124 or CDB-4453 (the monodemethylated metabolite of CDB-4124) formulated as either a micronized powder or a vaginal suppository. […] Moreover, systemic exposure of the drug is much lower when administered locally (compare AUC for CDB-4124 and CDB-4453 when administered vaginally vs. orally).

[5] = Cmax after vaginal administration extrapolated from beagles to humans; assay type: in vivo; settings: for Predicted Cmax for vaginal administration as percentage of the same dose administered orally: humans
Protocol: FIG. 2 illustrates the actual Cmax observed for Proellex (CDB-4124) and its monodemethylated metabolite CDB-4453, following oral administration of CDB-4124 at 12.5 mg, 25 mg and 50 mg doses as well as the projected Cmax for 3 mg, 6 mg and 9 mg doses. FIG. 2 also illustrates the actual Cmax observed for Proellex (CDB-4124) and its monodemethylated metabolite CDB-4453, following vaginal administration of CDB-4124 at 12.5 mg, 25 mg and 50 mg doses.
The maximum circulating concentrations (Cmax) of CDB-4124 obtained following vaginal administration to beagles were extrapolated to humans for the 12.5 mg, 25 mg and 50 mg doses actually administered during the Phase III clinical studies.
Because a high concentration of the drug in the systemic circulation (and associated first pass metabolism of the drug) is not reached by local administration, avoidance of the severe liver toxicity observed in a small percentage of subjects following oral administration of CDB-4124 in previous Phase III clinical studies at doses of 25 and 50 mg is a surprising advantage of administering the drug locally. Similar advantages should inure to local administration of other antiprogestins.

[6] = system: progesterone-induced endometrial proliferation; experiment: Anti-Clauberg study, subcutaneous vs oral; assay type: in vivo, rabbits
From the text: FIG. 3 illustrates a comparison of the inhibition of progesterone-induced endometrial proliferation in estradiol-primed immature rabbits following subcutaneous injection and oral administration of CDB-4124
To determine whether the low circulating levels of CDB-4124 when administered locally could have any impact predictive of efficacy, an anti-Clauberg study was run in which immature estradiol-primed rabbits were coadministered progesterone and various doses of CDB-4124 by either subcutaneous or oral administration. At least 3 different highly trained individuals evaluated the rabbit uterus for glandular growth, for complexity and overall progesterone-induced “development”. The inhibition (by percentage) of progesterone-induced endometrial proliferation at each dose was assayed. […] However, maximal inhibition required a ˜8-fold increase in dosage when administered orally (i.e. 8 mg/kg). Importantly 8 mg/kg corresponds closely to the 50 mg/day dose of CDB-4124 administered to the female subjects described in Example 3.

[7] = system: progesterone-induced endometrial proliferation; experiment: Anti-Clauberg study, vaginal vs oral (McPhail index); assay type: in vivo, rabbits
Protocol: FIG. 4 compares the antiprogestational effects of three doses of CDB-4124 when delivered orally versus when delivered to the vaginal mucosa of estradiol-primed immature rabbits in the presence of progesterone, as measured by a decrease in the McPhail index. Treatment with progesterone alone (vehicle control) provided a baseline measurement of progestational activity.
Another anti-Clauberg study was run in which immature estradiol-primed rabbits were administered progesterone alone (vehicle control) or were co-administered progesterone and three doses of CDB-4124 by either vaginal or oral administration. The inhibition of progesterone-induced endometrial proliferation at each dose was assayed. FIG. 3 illustrates the decrease in the McPhail index following increasing doses of CDB-4124 administered by either route. Maximal inhibition (i.e. a decrease in the McPhail index to 1.5) occurred at 0.2 mg/kg CDB-4124 when administered vaginally, compared to 0.8 mg/kg when administered orally.

[8] = Thermodynamic solubility (solid shaken in solvent at 37° C., filtrate by LC/UV); assay type: physicochemical; settings: water and 1.0 M HCl, 24 vs 72 hours
[9] = organic solvent or mixture, thermodynamic from solid, ethanol, 24 h, read-out: Thermodynamic solubility, Ethanol, Mean
[10] = organic solvent or mixture, thermodynamic from solid, ethanol, 72 h, read-out: Thermodynamic solubility, Ethanol, Mean
[11] = simulated gastric fluid, thermodynamic from solid, 0.1M HCl, 24 h, read-out: Thermodynamic solubility, 0.1M HCl, Mean
[12] = simulated gastric fluid, thermodynamic from solid, 0.1M HCl, 72 h, read-out: Thermodynamic solubility, 0.1M HCl, Mean
[13] = thermodynamic from solid, distilled water, 24 h, read-out: Thermodynamic solubility, Distilled water, Mean
[14] = thermodynamic from solid, distilled water, 72 h, read-out: Thermodynamic solubility, distilled water, Mean

COCC(=O)[C@@]1(OC(C)=O)CC[C@H]2[C@@H]3CCC4=CC(=O)CCC4=C3[C@@H](c3ccc(N(C)C)cc3)C[C@@]21C [CDB-4124]
solubility thermodynamic at 72 h ([1]; 0.1M HCl, 24 h, read-out: Thermodynamic solubility, 0.1M HCl, Mean): 53.09 µM (≈ 26.8 µg/mL) | solubility thermodynamic at 72 h ([1]; 0.1M HCl, 72 h, read-out: Thermodynamic solubility, 0.1M HCl, Mean): 56.12 µM (≈ 28.4 µg/mL) | solubility thermodynamic at 72 h ([1]; distilled water, 24 h, read-out: Thermodynamic solubility, distilled water, Mean): 7.10 µM (≈ 3.59 µg/mL) | solubility thermodynamic at 72 h ([1]; distilled water, 72 h, read-out: Thermodynamic solubility, distilled water, Mean): 3.20 µM (≈ 1.62 µg/mL) | Thermodynamic solubility, Ethanol, Mean ([1]; ethanol, 24 h): 36800 µM | Thermodynamic solubility, Ethanol, Mean ([1]; ethanol, 72 h): 34100 µM | Subjects with elevations reported as SAEs (liver aminotransferases; 25 mg CDB-4124 per day): One | Subjects with elevations reported as SAEs (liver aminotransferases; 50 mg CDB-4124 per day): six | Subjects with elevations severe enough to be reported as SAEs (liver aminotransferases; all doses): seven | Subjects found to exhibit an increase in liver enzymes ≧3×ULN (liver aminotransferases; all doses, before repeat test): thirteen | Subjects with confirmed increase in liver enzymes ≧3×ULN (liver aminotransferases; all doses, confirmed by repeat test in 48 hours): nine | Adverse liver toxicity signals (liver aminotransferases; oral, 12.5 mg): no adverse liver toxicity signals different from placebo | Liver toxicity effects at 25 mg/day compared with 50 mg/day (liver aminotransferases; oral, 25 mg/day vs 50 mg/day): significantly lower in frequency and intensity | Women exhibiting severe liver toxicity (liver aminotransferases; oral, 50 mg/day): 3-4% | Subjects in whom liver enzymes ≧3×ULN persisted (liver aminotransferases; previously dosed with the 50 mg dose): five | Cmax ([2]; following oral administration): high | Monodemethylated metabolite detected (first pass metabolism) ([2]; following oral administration): Large quantities | Tmax ([2]; following oral administration): 1 to 2 h | Maximum concentration for the 12.5 mg dose relative to the 50 mg dose ([2]; oral CDB-4124, 12.5 mg vs 50 mg): 25% | Production of the mono-demethylated metabolite (human hepatocytes): rapidly produce the mono-demethylated metabolite | Production of the mono-demethylated metabolite (animal hepatocytes): rapidly produce the mono-demethylated metabolite | Effect on quantity and size of DMBA-induced breast tumors [3]: effective in reducing the quantity and size of DMBA-induced breast tumors | Metabolism after peak plasma concentration ([4]; oral micronized powder): rapidly metabolized | Metabolism ([4]; vaginal suppository): metabolized slowly | Peak plasma concentrations (Cmax) ([4]; vaginal suppository): relatively low | Systemic exposure (AUC), local vs oral ([4]; vaginal vs oral): much lower | Predicted Cmax for vaginal administration as percentage of the same dose administered orally ([5]; 12.5 mg dose): approximately 6.5% | Cmax with 12.5 mg vaginal dose relative to 50 mg oral dose ([5]; 12.5 mg vaginal vs 50 mg oral): 2% | Predicted Cmax for vaginal administration as percentage of the same dose administered orally ([5]; 50 mg dose): approximately 2% | Dose required for maximal inhibition ([6]; oral): 8 mg/kg | Increase in dosage required for maximal inhibition, oral vs subcutaneous ([6]; oral vs subcutaneous): ~8 fold | Dose at which maximal inhibition was observed ([6]; subcutaneous): less than 1 mg/kg | McPhail index at maximal inhibition ([7]; 0.2 mg/kg vaginal or 0.8 mg/kg oral): 1.5 | Dose at which maximal inhibition occurred ([7]; oral): 0.8 mg/kg | Dose at which maximal inhibition occurred ([7]; vaginal): 0.2 mg/kg | Antiprogestational activity of vaginal delivery relative to the same oral dose ([7]; vaginal vs oral): four times the antiprogestational activity

COCC(=O)[C@@]1(OC(C)=O)CC[C@H]2[C@@H]3CCC4=CC(=O)CCC4=C3[C@@H](c3ccc(C(C)=O)cc3)C[C@@]21C [CDB-4239, 21-methoxy-17α-acetoxy-11β-(4-acetylphenyl)-19-norpregna-4,9-diene-3,20-dione]
solubility thermodynamic at 24 h [1, 9]: > 98200 µM | solubility thermodynamic at 72 h [1, 10]: > 100000 µM | solubility thermodynamic at 24 h [1, 11]: 140 µM (≈ 70.8 µg/mL) | solubility thermodynamic at 72 h [1, 12]: 110 µM (≈ 55.6 µg/mL) | solubility thermodynamic at 24 h [1, 13]: 141 µM (≈ 70.9 µg/mL) | solubility thermodynamic at 72 h [1, 14]: 54.8 µM (≈ 27.7 µg/mL) | Tendency of water and HCl solubilities between 24 and 72 hours [8]: decreasing tendency

CC(=O)OCC(=O)[C@@]1(OC(C)=O)CC[C@H]2[C@@H]3CCC4=CC(=O)CCC4=C3[C@@H](c3ccc(C(C)=O)cc3)C[C@@]21C [CDB-4241, 21-acetoxy-17α-acetoxy-11β-(4-acetylphenyl)-19-norpregna-4,9-diene-3,20-dione]
solubility thermodynamic at 24 h [1, 9]: 26300 µM (≈ 14000 µg/mL) | solubility thermodynamic at 72 h [1, 10]: 21600 µM (≈ 11500 µg/mL) | solubility thermodynamic at 24 h [1, 11]: 3.21 µM (≈ 1.71 µg/mL) | solubility thermodynamic at 72 h [1, 12]: 3.9 µM (≈ 2.08 µg/mL) | solubility thermodynamic at 24 h [1, 13]: 3.08 µM (≈ 1.64 µg/mL) | solubility thermodynamic at 72 h [1, 14]: 3.05 µM (≈ 1.62 µg/mL)
